Source: patent US20200120909A1, “COMPOSITIONS AND METHODS FOR THE STUDY AND TREATMENT OF ACUTE KIDNEY INJURY” (THE JOHNS HOPKINS UNIVERSITY, priority 2014, published 2020)

Experiments:
[1] = test system: Nrf2; assay: Ex-vivo Nrf2 activation of purified mouse T cells, real-time PCR of Nrf2 target genes; type: cell-based
Experimental: (§1) FIG. 11. […] RNA isolated from these cells was analyzed by quantitative real-time PCR for expression of Nrf2 target genes, NQO1, HO-1 and GCLM. […] Furthermore, we treated peripheral blood mononuclear cells (PBMCs) from healthy individuals and treated them with CDDO-Me (Bardoxolone), an Nrf2 activator related to triterpenopid derivative CDDO-Im.
Antioxidant Gene Expression Analyses. Total RNA ([…]) from purified T cells was isolated with the RNeasy mini kit (Qiagen, Valencia, Calif.) and reverse transcribed using a high capacity cDNA synthesis kit (Life Technologies). A gene-specific TaqMan primer and probe sets were used to assess transcriptional status of Nrf2, Nqo1, Ho-1, Gclm, and Gclc in Quantstudio 12K flex real-time PCR (Life Technologies). The absolute expression values for each gene were normalized to that of b-actin and the relative gene expression values calculated.

[2] = test system: acute kidney injury; settings: pharmacological activation of Nrf2 regulated antioxidant response; cited from earlier work
[3] = test system: Nrf2; assay: Nrf2 target gene expression in treated human peripheral blood mononuclear cells; type: cell-based
Experimental: as §1

[4] = test system: T cells; settings: cited from earlier work; for TNF-a and IFN-g production: after CD3/CD28 activation; for T helper phenotype skewing: pharmacologic activation of Nrf2
[5] = purified T cells from wild type mice, 20 nM and 50 nM, 24 hours

CC1(C)CC[C@]2(C(=O)n3ccnc3)CC[C@]3(C)[C@H](C(=O)C=C4[C@@]5(C)C=C(C#N)C(=O)C(C)(C)[C@@H]5CC[C@]43C)[C@@H]2C1 [CDDO-Im]
HO-1 mRNA expression [1, 5]: significant increase | NQO1 mRNA expression [1, 5]: significant increase | activating Nrf2 regulated antioxidant gene expression ([1]; purified mouse T cells, 20 and 50 μM): significantly effective | protection from acute kidney injury [2]: can protect from acute kidney injury | activating Nrf2 regulated antioxidant gene expression ([3]; human PBMCs, 20 and 50 μM): significantly effective

COC(=O)[C@]12CCC(C)(C)C[C@H]1[C@H]1C(=O)C=C3[C@@]4(C)C=C(C#N)C(=O)C(C)(C)[C@@H]4CC[C@@]3(C)[C@]1(C)CC2 [CDDO-Me, bardoxolone methyl]
gene expression of GCLM ([3]; PBMCs from healthy individuals, p=0.01): significant increase | gene expression of NQO1 ([3]; PBMCs from healthy individuals, p=0.02): significant increase | gene expression of HO-1 ([3]; PBMCs from healthy individuals, p=0.05): significant increase

COc1ccc(O)c(C(C)(C)C)c1 [butylated hydroxyanisole]
TNF-a and IFN-g production [4]: suppress | T helper phenotype skewing [4]: skew T cells toward a Th2 type phenotype

CC(C)(C)c1cc(O)ccc1O [tertbutylhydroquinone, tert-butylhydroquinone]
TNF-a and IFN-g production [4]: suppress | T helper phenotype skewing [4]: skew T cells toward a Th2 type phenotype
